Assay [1] addresses T1, 5-HT1A receptors (Rattus norvegicus, UniProt P19327).
T1 construct: Hippocampal tissue from the brains of male Sprague-Dawley rats; from tissue; host or cells: rat hippocampus membranes
T1 sequence (P19327 1-422): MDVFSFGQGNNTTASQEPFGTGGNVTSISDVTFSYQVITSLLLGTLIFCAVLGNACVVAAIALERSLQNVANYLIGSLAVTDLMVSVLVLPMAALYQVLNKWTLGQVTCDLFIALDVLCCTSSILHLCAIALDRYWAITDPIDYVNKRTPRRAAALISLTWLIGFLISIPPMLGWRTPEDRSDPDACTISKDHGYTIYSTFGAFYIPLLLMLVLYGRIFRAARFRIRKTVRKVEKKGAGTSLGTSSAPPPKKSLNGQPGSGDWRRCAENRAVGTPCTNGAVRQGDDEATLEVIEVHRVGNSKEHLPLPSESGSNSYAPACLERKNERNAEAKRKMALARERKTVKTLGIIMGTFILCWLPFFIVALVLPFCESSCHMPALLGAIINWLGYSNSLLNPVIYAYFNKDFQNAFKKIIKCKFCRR
Description: inhibition of [3H]8-OH-DPAT binding to 5-HT1A receptors in rat hippocampal tissue. The conditions noted are these: rat hippocampus; for Ki: [3H]8-OH-DPAT 2 nM, 25° C., 30 min; for inhibition at 1 µM: at 10^-6 M, [3H]8-OH-DPAT, read-out: % displacement of radio ligand, 5-HT1A. Here is the method: Hippocampal tissue from the brains of male Sprague-Dawley rats (Charles River; weight range 150-250 g) was homogenised in ice-cold 50 mM Tris-HCl buffer (pH 7.7 when measured at 25° C., 1:40 w/v) and centrifuged at 30,000 g at 4° C. for 10 minutes. The pellet was rehomogenised in the same buffer, incubated at 37° C. for 10 minutes and centrifuged at 30,000 g at 4° C. for 10 minutes. The final pellet was resuspended in 50 mM Tris-HCl buffer (pH 7.7) containing 4 mM CaCl2, 0.1% L-ascorbic acid and 10 μM pargyline hydrochloride (equivalent to 6.25 mg wet weight of tissue/ml) and used immediately in the binding assay. Aliquots (400 μl; equivalent to 2.5 mg wet weight of tissue/tube) of this suspension were added to tubes containing the ligand (50 μl; 2 nM) and distilled water (50 μl total binding) or 5-HT (50 μl; 10 μM; non-specific binding) or test compound (50 μl; at a single concentration of 10^-6 M or at 10 concentrations ranging from 10^-11 -10^-3 M). The ligand was [^3 H]8-hydroxy-2-(dipropylamino)tetralin ([^3 H]8-OH-DPAT) and the mixture was incubated at 25° C. for 30 minutes before the incubation was terminated by rapid filtration.
(§1) The filters were washed with ice-cold Tris-HCl buffer and dried. The filters were punched out into vials, scintillation fluid added and radioactivity determined by liquid scintillation counting. The percentage displacement of specific binding of the tritiated ligand was calculated for the single concentration (10^-6 M) of test compound. Displacement curves were then produced for those compounds which displaced ≥50% of specific binding of the tritiated ligand at 10^-6 M using a range of concentrations of the compound. The concentration which gave 50% inhibition of specific binding (IC50) was obtained from the curve. The inhibition coefficient Ki was then calculated using the formula [formula] in which [ligand] is the concentration of the tritiated ligand used and KD is the equilibrium dissociation constant for the ligand.

Assay [2] addresses T2, D2 dopamine receptors (Rattus norvegicus, UniProt P61169).
T2 construct: Striatal tissue from the brains of male Charles River CD rats; from tissue; host or cells: rat striatum membranes
The assay is described as follows: inhibition of tritiated (S)-sulpiride binding to D2 dopamine receptors in rat striatal tissue. The conditions noted are these: rat striatum; for Ki: tritiated (S)-sulpiride 1 nM, 4° C., 40 min; for inhibition at 1 µM: at 10^-6 M, tritiated (S)-sulpiride, read-out: % displacement of radio ligand, D2. Here is the method: Striatal tissue from the brains of male Charles River CD rats weighing between 140-250 g were homogenised in ice-cold 50 mM Tris-HCl buffer (pH 7.7 when measured at 25° C.) and centrifuged at 40,000 g for 10 minutes. The pellet was resuspended in Tris salts buffer (50 mM Tris-HCl buffer containing 120 mM NaCl, 5 mM KCl, 2 mM CaCl2 and 1 mM MgCl2 with the addition of 6 mM ascorbic acid; pH 7.7 when measured at 25° C.), and again centrifuged at 40,000 g for 10 minutes. The final pellet was stored at -80° C. Before each test the pellet was resuspended in Tris salts buffer (equivalent to 2 mg wet weight of tissue/ml). Aliquots (720 μl; equivalent to 1.44 mg wet weight of tissue/tube) of this suspension were then added to tubes containing the ligand (40 μl; 1 nM) and Tris salts buffer (40 μl; total binding) or spiroperidol (40 μl; 10 nM; non-specific binding) or test compound (40 μl; at a single concentration of 10^-6 M or at 6 concentrations ranging from 10^-11 -10^-4 M). The ligand was tritiated (S)-sulpiride and the mixture was incubated at 4° C. for 40 minutes before the incubation was terminated by rapid filtration.
The filters were washed with ice-cold Tris-HCl buffer and dried. The filters were punched out in to vials, scintillation fluid added and were left for about 20 hours before being counted by scintillation spectrophotometry. The percentage displacement of specific binding of the tritiated ligand was calculated for the single concentration (10^-6 M) of test compound. Displacement curves were then produced over a range of concentrations for those compounds which displaced ≥50% of specific binding of the tritiated ligand at 10^-6 M. The concentration which gave a 50% inhibition of specific binding (IC50) was obtained from the curve. The inhibition coefficient Ki was then calculated using the formula [formula] in [ligand] is the concentration of the tritiated ligand used and KD is the 2 equilibrium dissociation constant for the ligand.

For assay [3], the target named is α1-adrenoceptors. Description: inhibition of [7-methoxy-3H]prazosin binding to α1-adrenoceptors in rat whole cortical tissue. The conditions noted are these: rat whole cortex, 30 min; for Ki: [7-methoxy-3H]prazosin 0.1 nM, 30° C.; for % displacement of radio ligand, α1: at 10^-6 M, [7-methoxy-3H]prazosin, 1 µM. As for the experimental part:
Whole cortical tissue from the brains of male Charles River CD rats weighing between 150-250 g were homogenised in ice-cold 50 mM Tris-HCl, pH 7.6 (at 25° C.; 1:40 w/v) and centrifuged at 1000 g at 4° C. for 10 minutes. The supernatant was centrifuged at 30,000 g at 4° C. for 10 minutes. The pellet was rehomogenised in 50 mM Tris-HCl, pH 7.6 (1:40 w/v) and centrifuged at 30,000 g at 4° C. for 10 minutes. The final pellet was resuspended in 50 mM Tris-HCl, pH 7.6 (equivalent to 12.5 mg wet weight of tissue/ml) and used immediately in the binding assay. Aliquots (400 μl; equivalent to 5 mg wet weight of tissue/tube) of this suspension were added to tubes containing the ligand (50 μl; 0.1 nM) and distilled water (50 μl; total binding) or phentolamine (50 μl; 5 μM; non-specific binding) or test compound (50 μl; at a single concentration of 10^-6 M or at 10 concentrations ranging from 10^-11 -10^-3 M). The ligand was [7-methoxy-^3 H]prazosin and the mixture was incubated at 30° C. for 30 minutes before the incubation was terminated by rapid filtration.
as §1

Structures are written as SMILES.

Data on 14 compounds can be found in US5935973A, “Heterocyclcarboxamide derivatives and their use as therapeutic agents” (Knoll Aktiengesellschaft, priority 1995, dated 1999).

T2 sequence (P61169 whole entry): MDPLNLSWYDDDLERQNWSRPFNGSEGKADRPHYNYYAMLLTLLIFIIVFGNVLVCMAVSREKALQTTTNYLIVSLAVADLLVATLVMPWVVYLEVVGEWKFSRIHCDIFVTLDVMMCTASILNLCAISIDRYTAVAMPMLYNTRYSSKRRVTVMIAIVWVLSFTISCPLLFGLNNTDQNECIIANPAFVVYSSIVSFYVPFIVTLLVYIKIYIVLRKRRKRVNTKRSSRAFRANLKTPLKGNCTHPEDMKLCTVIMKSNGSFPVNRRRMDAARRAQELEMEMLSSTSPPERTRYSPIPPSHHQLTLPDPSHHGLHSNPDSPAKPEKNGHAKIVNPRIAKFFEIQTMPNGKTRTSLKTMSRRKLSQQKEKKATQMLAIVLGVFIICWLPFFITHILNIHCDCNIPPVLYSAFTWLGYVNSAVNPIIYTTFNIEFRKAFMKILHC

As for `Nc1ncccc1C(=O)N1CCC(CNCC2COc3ccc(Cl)cc3O2)CC1` (racemic) [Example 19, 1-(2-aminonicotinoyl)-4-[N-(7-chloro-1,4-benzodioxan-2-ylmethyl)aminomethyl]piperidine], the inhibition constant Ki in assay [1] is 30 nM; in assay [2], 11.4 nM; in assay [3], 49 nM.

As for `Nc1ncccc1C(=O)NCC1CCN(C[C@H]2COc3ccc(Br)cc3O2)CC1` [Example 21, (S)-2-amino-N-{[1-(7-bromo-1,4-benzodioxan-2-ylmethyl)-4-piperidyl]methyl}pyridine-3-carboxamide], the Ki in assay [1] was 35 nM; in assay [2], 18 nM; in assay [3], 99 nM.

Turning to `O=C(NCC1CCN(C[C@H]2COc3cccc(Cl)c3O2)CC1)c1cccnc1` [Example 24, (S)-N-{[1-(8-chloro-1,4-benzodioxan-2-ylmethyl)-4-piperidyl]methyl}pyridine-3-carboxamide], the Ki in assay [1] was found to be 34 nM; in assay [2], 16 nM; in assay [3], 9 nM.

In the case of `Cc1cccc(C(=O)NCC2CCN(C[C@H]3COc4ccc(Cl)cc4O3)CC2)n1` [Example 25, (S)-N-{[1-(7-chloro-1,4-benzodioxan-2-ylmethyl)-4-piperidyl]methyl}-6-methylpyridine-2-carboxamide], the Ki in assay [1] amounted to 47 nM; in assay [2], 33 nM; in assay [3], 233 nM.

As for `COc1ncccc1C(=O)NCC1CCN(C[C@H]2COc3ccc(Cl)cc3O2)CC1` [Example 26, (S)-N-{[1-(7-chloro-1,4-benzodioxan-2-ylmethyl)-4-piperidyl]methyl}-2-methoxypyridine-3-carboxamide], the Ki in assay [1] amounted to 7 nM; in assay [2], 43 nM; in assay [3], 130 nM.

`Nc1ncccc1C(=O)NCC1CCN(C[C@H]2COc3ccc(F)c(F)c3O2)CC1` [Example 27, (S)-2-amino-N-{[1-(7,8-difluoro-1,4-benzodioxan-2-ylmethyl)4-piperidyl]methyl}pyridine-3-carboxamide]: the values for the inhibition at 1 µM in assay [1] and in assay [2] were 90% and 99.9%, respectively. The “% displacement of radio ligand, α1” value in assay [3] was 68%.

For `Nc1ncccc1C(=O)NCC1CCN(C[C@H]2COc3cccc(OS(=O)(=O)C(F)(F)F)c3O2)CC1` [Example 28, (S)-2-amino-N-{[1-(8-trifluoromethanesulphonyloxy-1,4-benzodioxan-2-ylmethyl)-4-piperidyl]methyl}pyridine-3-carboxamide], the values for the inhibition at 1 µM in assay [1] and in assay [2] were 96% and 101%, respectively. In addition, in assay [3], the “% displacement of radio ligand, α1” value is 98%.

For `O=C(c1ccccn1)N1CCC(CNC[C@H]2COc3ccc(Cl)cc3O2)CC1` [Example 29, 4-[N-(7-chloro-1,4-benzodioxan-2-ylmethyl)aminomethyl]-1-(2-pyridylcarbonyl)piperidine], the inhibition at 1 µM in assay [1] worked out at 95%. Moreover, the “% displacement of radio ligand, α1” value in assay [3] was determined as 85%.

Turning to `Cc1ccc2c(c1)O[C@@H](CN1CCC(CNC(=O)c3cccnc3)CC1)CO2` [Example 30, (S)-N-{[1-(7-methyl-1,4-benzodioxan-2-ylmethyl)-4-piperidyl]methyl}pyridine-3-carboxamide], the inhibition at 1 µM in assay [1] is 78%; in assay [2], 85%. In addition, the “% displacement of radio ligand, α1” value in assay [3] amounted to 61%.

Take `Cc1ccc2c(c1)O[C@@H](CN1CCC(CNC(=O)c3cccnc3C)CC1)CO2` [Example 31, (S)-2-methyl-N-{[1-(7-methyl-1,4-benzodioxan-2-ylmethyl)-4-piperidyl]-methyl}pyridine-3-carboxamide]: the inhibition at 1 µM was 63% in assay [1] and 68% in assay [2]. Moreover, the “% displacement of radio ligand, α1” value in assay [3] was 41%.

As for `Cc1ccc2c(c1)O[C@@H](CN1CCC(CNC(=O)c3ccc(-n4cccc4)nc3)CC1)CO2` [Example 32, (S)-N-{[1-(7-methyl-1,4-benzodioxan-2-ylmethyl)-4-piperidyl]methyl}-6-(1-pyrrolyl)pyridine-3-carboxamide], the values for the inhibition at 1 µM in assay [1] and in assay [2] were 92% and 80%, respectively. For the same compound, the “% displacement of radio ligand, α1” value in assay [3] stood at 71%.

In the case of `CSc1ncccc1C(=O)NCC1CCN(C[C@H]2COc3ccc(C)cc3O2)CC1` [Example 33, (S)-N-{[1-(7-methyl-1,4-benzodioxan-2-ylmethyl)-4-piperidyl]methyl}-2-(methylthio)pyridine-3-carboxamide], the inhibition at 1 µM in assay [1] and in assay [2] was 81% in each case. Besides, the “% displacement of radio ligand, α1” value in assay [3] is 41%.

As to `Cc1ccc2c(c1)O[C@@H](CN1CCC(CNC(=O)c3cncc(Br)c3)CC1)CO2` [Example 34, (S)-5-bromo-N-{[1-(7-methyl-1,4-benzodioxan-2-ylmethyl)-4-piperidyl]-methyl}pyridine-3-carboxamide], the inhibition at 1 µM in assay [1] stood at 87%; in assay [2], 86%. The “% displacement of radio ligand, α1” value in assay [3] came to 68%.

`O=C(NCC1CCN(C[C@H]2COc3ccc(Br)cc3O2)CC1)c1cccnc1` [Example 35, (S)-N-{[1-(7-bromo-1,4-benzodioxan-2-ylmethyl)-4-piperidyl]methyl}pyridine-3-carboxamide]: the inhibition at 1 µM in assay [1] is 95%; in assay [2] it was 101%. Moreover, the “% displacement of radio ligand, α1” value in assay [3] worked out at 73%.

In general, Ki refers to the equilibrium dissociation constant of an inhibitor or competing ligand from its target.
